Measured values as given in the supplement of paper PMC5908809.

Experiments:
[1] = system: normal NK cells expanded with K562-aAPC; test: percent inhibition of viability; higher = more inhibition; settings: 72 h, IL-2 2.5 ng/mL
Experimental: (§1)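 Drug sensitivity and resistance testing on K562-aAPC-expanded normal NK cells: 5 concentrations (10-fold steps over a 10,000-fold range), 72 h at 37 °C, viability by CellTiter-Glo normalised to DMSO and benzethonium chloride controls; DSS from the fitted curve.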

DERL-7 (IL-2 2.5 ng/mL) [2] = test: as above; settings: 72 h
IMC-1 (IL-2 20 ng/mL) [3] = test: as above; settings: 72 h
KAI3 (IL-2 2.5 ng/mL) [4] = test: as above; settings: 72 h
KHYG-1 (IL-2 2.5 ng/mL) [5] = test: as above; settings: 72 h
NK-92 (IL-2 2.5 ng/mL) [6] = test: as above; settings: 72 h
NK-YS (IL-2 2.5 ng/mL) [7] = test: as above; settings: 72 h
NKL (IL-2 2.5 ng/mL) [8] = test: as above; settings: 72 h
SNK-6 (IL-2 2.5 ng/mL) [9] = test: as above; settings: 72 h
YT (IL-2 2.5 ng/mL) [10] = test: as above; settings: 72 h
[11] = system: normal primary NK cells, pool 1 (3 donors) (IL-2 2.5 ng/mL); test: as above; settings: 72 h
[12] = system: normal primary NK cells, pool 1 (3 donors), resting (IL-2 0 ng/mL); test: as above; settings: 72 h
[13] = system: normal primary NK cells, pool 2 (3 donors) (IL-2 2.5 ng/mL); test: as above; settings: 72 h
[14] = system: normal primary NK cells, pool 3 (3 donors) (IL-2 2.5 ng/mL); test: as above; settings: 72 h
[15] = system: normal NK cells expanded with K562-aAPC; test: drug sensitivity score (DSS) (DSS units); higher = more sensitive; extreme values may be limits of the assay; settings: 72 h; IL-2 2.5 ng/mL
Experimental: as §1

DERL-7 (IL-2 2.5 ng/mL) [16] = test: as above; settings: 72 h
IMC-1 (IL-2 20 ng/mL) [17] = test: as above; settings: 72 h
KAI3 (IL-2 2.5 ng/mL) [18] = test: as above; settings: 72 h
KHYG-1 (IL-2 2.5 ng/mL) [19] = test: as above; settings: 72 h
NK-92 (IL-2 2.5 ng/mL) [20] = test: as above; settings: 72 h
NK-YS (IL-2 2.5 ng/mL) [21] = test: as above; settings: 72 h
NKL (IL-2 2.5 ng/mL) [22] = test: as above; settings: 72 h
SNK-6 (IL-2 2.5 ng/mL) [23] = test: as above; settings: 72 h
YT (IL-2 2.5 ng/mL) [24] = test: as above; settings: 72 h
[25] = system: normal primary NK cells, pool 1 (3 donors) (IL-2 2.5 ng/mL); test: as above; settings: 72 h
[26] = system: normal primary NK cells, pool 1 (3 donors), resting (IL-2 0 ng/mL); test: as above; settings: 72 h
[27] = system: normal primary NK cells, pool 2 (3 donors) (IL-2 2.5 ng/mL); test: as above; settings: 72 h
[28] = system: normal primary NK cells, pool 3 (3 donors) (IL-2 2.5 ng/mL); test: as above; settings: 72 h

CC[C@]1(O)C[C@@H]2CN(CCc3c([nH]c4ccccc34)[C@@](C(=O)OC)(c3cc4c(cc3OC)N(C)[C@H]3[C@@](O)(C(=O)OC)[C@H](OC(C)=O)[C@]5(CC)C=CCN6CC[C@]43[C@@H]65)C2)C1 [Vinblastine] (max concentration tested 1000 nM)
percent inhibition of viability [%]
Settings | 0.1 nM | 1 nM | 10 nM | 100 nM | 1000 nM
DERL-7 (IL-2 2.5 ng/mL) [2] | -13.4 | -1.94 | 99.7 | 101 | 99.8
IMC-1 (IL-2 20 ng/mL) [3] | -4.96 | -7.43 | 99.5 | 101 | 100
KAI3 (IL-2 2.5 ng/mL) [4] | -16.5 | -7.66 | 45.5 | 71.1 | 82.4
KHYG-1 (IL-2 2.5 ng/mL) [5] | -4.6 | -0.24 | 96.7 | 108 | 110
NK-92 (IL-2 2.5 ng/mL) [6] | -11.5 | -1.18 | 64.9 | 100 | 107
NK-YS (IL-2 2.5 ng/mL) [7] | -5.37 | -3.92 | 70.7 | 69.4 | 90.8
NKL (IL-2 2.5 ng/mL) [8] | -3.5 | 4.6 | 90.8 | 97.5 | 102
SNK-6 (IL-2 2.5 ng/mL) [9] | -13.4 | -12.2 | 83.3 | 91.1 | 97.8
YT (IL-2 2.5 ng/mL) [10] | -6.33 | -5.56 | 88.8 | 105 | 107
[1] | -6.33 | -1.7 | 26.7 | 60.2 | 63
[11] | -10.7 | 7.03 | 4.09 | 14.3 | 22.7
[12] | -21.5 | 2.75 | -2.96 | 17.9 | 28.1
[13] | -6.34 | 7.02 | 16.6 | 16.1 | 23.6
[14] | -4.89 | 5.36 | 12.3 | 3.78 | 13.7

Settings | drug sensitivity score
DERL-7 (IL-2 2.5 ng/mL) [16] | 30.2
IMC-1 (IL-2 20 ng/mL) [17] | 29.8
KAI3 (IL-2 2.5 ng/mL) [18] | 20.6
KHYG-1 (IL-2 2.5 ng/mL) [19] | 30
NK-92 (IL-2 2.5 ng/mL) [20] | 25.6
NK-YS (IL-2 2.5 ng/mL) [21] | 24.6
NKL (IL-2 2.5 ng/mL) [22] | 29.5
SNK-6 (IL-2 2.5 ng/mL) [23] | 27.2
YT (IL-2 2.5 ng/mL) [24] | 28.4
[15] | 14.7
[25] | 1.97
[26] | 3.19
[27] | 4.33
[28] | 0.31

COc1cc2c(Nc3ccc(Cl)c(Cl)c3F)ncnc2cc1OC[C@@H]1C[C@@H]2CN(C)C[C@@H]2C1 [XL-647] (max concentration tested 1000 nM)
percent inhibition of viability [%]
Settings | 0.1 nM | 1 nM | 10 nM | 100 nM | 1000 nM
DERL-7 (IL-2 2.5 ng/mL) [2] | 2.38 | 4.2 | 2.43 | 5.16 | 49.9
IMC-1 (IL-2 20 ng/mL) [3] | -7 | -0.32 | 0.43 | -6.58 | 6.29
KAI3 (IL-2 2.5 ng/mL) [4] | -2.77 | -5.01 | 0.66 | 13.1 | 44
KHYG-1 (IL-2 2.5 ng/mL) [5] | -6.79 | -7.9 | -4.38 | -1 | 19.7
NK-92 (IL-2 2.5 ng/mL) [6] | 2.48 | -1.64 | 0.32 | 10.1 | 56.2
NK-YS (IL-2 2.5 ng/mL) [7] | -8.01 | -7.74 | -6.62 | 1.82 | 42.2
NKL (IL-2 2.5 ng/mL) [8] | -12.1 | -2.96 | 0.78 | 18.2 | 55.1
SNK-6 (IL-2 2.5 ng/mL) [9] | 17.2 | -16.8 | -17.2 | -22.1 | 3.73
YT (IL-2 2.5 ng/mL) [10] | -6.35 | -3.87 | -2.73 | 5.21 | 28.1
[1] | -7 | -6.81 | -2.66 | 7.59 | 37.1
[11] | 0.18 | 15.8 | 5.17 | 13.4 | 36.7
[12] | -0.45 | 21.2 | 8.11 | 17.6 | 64.4
[13] | -4.62 | 6.47 | 1.95 | -3.8 | 39.6
[14] | -9.94 | 18.6 | 6.02 | -4.74 | 21.1

Settings | drug sensitivity score
DERL-7 (IL-2 2.5 ng/mL) [16] | 3.48
IMC-1 (IL-2 20 ng/mL) [17] | 0
KAI3 (IL-2 2.5 ng/mL) [18] | 4.2
KHYG-1 (IL-2 2.5 ng/mL) [19] | 0.5
NK-92 (IL-2 2.5 ng/mL) [20] | 4.71
NK-YS (IL-2 2.5 ng/mL) [21] | 2.37
NKL (IL-2 2.5 ng/mL) [22] | 5.6
SNK-6 (IL-2 2.5 ng/mL) [23] | 0
YT (IL-2 2.5 ng/mL) [24] | 1.99
[15] | 3.02
[25] | 3.29
[26] | 5.88
[27] | 1.68
[28] | 0.47
